Laboratory results published in patent publication US9382549B2, “Glyphosate resistant plants and associated methods” (DOW AGROSCIENCES LLC, priority 2012, dated 2016).

Columns and labels:
T1 Arabidopsis [1] = experiment: dgt-31, dgt-32, dgt-33 v1 T1 Arabidopsis response to glyphosate, visual % injury 2 WAT; assay type: in vivo, Arabidopsis thaliana
Excerpt: T1 plants were sampled and copy number analysis for the dgt-31, dgt-32, and dgt-33 v1 gene were completed. T1 plants were then assigned to various rates of glyphosate so that a range of copies were among each rate. For Arabidopsis, 26.25 g ae/ha glyphosate is an effective dose to distinguish sensitive plants from ones with meaningful levels of resistance. Elevated rates were applied to determine relative levels of resistance (105, 420, 1680, or 3360 g ae/ha).
All glyphosate herbicide applications were made by track sprayer in a 187 L/ha spray volume. Glyphosate used was of the commercial Durango dimethylamine salt formulation (480 g ae/L, Dow AgroSciences, LLC).
T1 plants selected above were subsequently transplanted to individual pots and sprayed with various rates of commercial glyphosate. Table 15 compares the response of dgt-31, dgt-32, and dgt-33 v1 and control genes to impart glyphosate resistance to Arabidopsis T1 transformants. Response is presented in terms of % visual injury 2 WAT. […] An arithmetic mean and standard deviation is presented for each treatment. The range in individual response is also indicated in the last column for each rate and transformation. Wild-type non-transformed Arabidopsis (cv. Columbia) served as a glyphosate sensitive control. […]

T1 Arabidopsis [2] = experiment: T1 Arabidopsis response to postemergence glyphosate, visual % injury (dgt-28, dgt-32, dgt-33, dgt-3, dgt-7); assay type: in vivo, Arabidopsis thaliana
Excerpt: Transgenic T1 Arabidopsis plants containing the dgt-28 transgene were sprayed with differing rates of glyphosate. Elevated rates were applied in this study to determine the relative levels of resistance (105, 420, 1,680 or 3,360 g ae/ha). A typical 1× usage rate of glyphosate that will control non-transformed Arabidopsis is 420 g ae/ha. […] The T1 Arabidopsis plants that were used in this study were variable copy number for the dgt-28 transgene. The low copy dgt-28 T1 Arabidopsis plants were self-pollinated and used to produce T2 plants.
The Arabidopsis T1 transformants were first selected from the background of untransformed seed using a glufosinate selection scheme. Three flats or 30,000 seed were analyzed for each T1 construct. The T1 plants selected above were molecularly characterized and representative plants with variable copy number were subsequently transplanted to individual pots and sprayed with various rates of commercial glyphosate as previously described. The response of these plants is presented in terms of % visual injury 2 weeks after treatment (WAT). […] An arithmetic mean and standard deviation is presented for each construct used for Arabidopsis transformation. The range in individual response is also indicated in the last column for each rate and transformation. Wild-type, non-transformed Arabidopsis (c.v. Columbia) served as a glyphosate sensitive control.

[3] = system: untransformed B104 maize line; experiment: Growth inhibition dosage response of maize cells on glyphosate; assay type: cell-based, Zea mays
[4] = system: T1 wheat, Bobwhite MPB26RH; experiment: Wheat detailed phenotypic screen (glyphosate 420-3360 g ai/ha); assay type: in vivo, Triticum aestivum; conditions: untransformed donor wheat
Method: Four replicates of 12 T1 seeds per selected event and eight replicates (12 seeds each) of the untransformed donor wheat line Bobwhite MPB26RH were sown in 85 mm pots and grown to the 2-leaf stage under well-watered conditions at 25° C. with supplementary lighting providing a 12 hour photoperiod. The pots were placed in a randomised design to allow environmental effects to be removed during data analysis. At the 2-leaf stage, plant length and number of leaves was recorded for each plant before spraying with glyphosate. The first, second, third and fourth replicate of T1 plants for each selected event and the untransformed donor wheat line were sprayed at a dose rate of 420, 840, 1680 and 3360 g ai/ha, respectively. The fifth, sixth, seventh and eighth replicate of untransformed donor wheat line (total 48 plants) were not sprayed. At 7, 14 and 21 days after spraying, the plants were scored for plant length, number of leaves and phenotypic response to glyphosate using the scoring scale in Table 37. Any morphological abnormalities were also recorded. For scoring, the scorer was “blinded” with regard to plant genotype and spray dose rate to prevent scoring bias. Plants with delayed germination and poor establishment (criteria: plant length <6 cm) at the pre-spray scoring were excluded from subsequent analyses.
This differentiation was maximal at 21 days and was observed across all glyphosate dose rates. Table 41. To assess the tolerance of the transgenic events to glyphosate at each spray dose rate, null T1 plants (i.e., plants not carrying the transgene) were excluded from subsequent analyses. T1 plants with a response score of less than three at 21 days after spraying were considered to have the null genotype. […]

T0 corn = experiment: T0 dgt-28 corn postemergence glyphosate tolerance; assay type: in vivo, Zea mays
Method: Zea mays dgt-28 transformation events (T0) were allowed to acclimate in the greenhouse and were grown until plants had transitioned from tissue culture to greenhouse growing conditions (i.e., 2-4 new, normal looking leaves had emerged from the whorl). Plants were grown at 27° C. under 16 hour light:8 hour dark conditions in the greenhouse. The plants were then treated with commercial formulations of DURANGO DMA™ (containing the herbicide glyphosate) with the addition of 2% w/v ammonium-sulfate. Herbicide applications were made with a track sprayer at a spray volume of 187 L/ha, 50-cm spray height. T0 plants were sprayed with a range of glyphosate from 280-4480 g ae/ha glyphosate, which is capable of significant injury to untransformed corn lines. A lethal dose is defined as the rate that causes >95% injury to the B104 inbred.
T0 events of dgt-28 linked with TraP4, TraP5, TraP8 and TraP23 were generated by Agrobacterium transformation and were allowed to acclimate under controlled growth chamber conditions until 2-4 new, normal looking leaves had emerged from the whorl. Plants were assigned individual identification numbers and sampled for copy number analyses of both dgt-28 and aad-1. Based on copy number analyses, plants were selected for protein expression analyses. […]

[5] = system: EPSP synthase (DGT enzymes); experiment: Steady-state kinetic parameters of DGT enzymes (Km for PEP, kcat/Km); assay type: biochemical
Method: The enzyme activities of wild-type (WT) and mutant DGTs were measured by inorganic phosphate (Pi) production in a modified procedure described by Lanzetta et al. (1979) Anal. Bioch. […] Assays were performed in 96-well plate format in a total of 50 μL on a Spectra-Max 190 plate reader (Molecular Devices, Sunnyvale, Calif.). Typical assays contained 50 mM HEPES pH 7.5, 150 mM KCl, 2 mM DTT, and 1 mM S3P. […] Assays were initiated by addition of the DGT enzyme at concentrations that varied between 0.01-1 μM. Reactions were terminated by the addition of 235 μL of a 3:1 mixture of malachite green: ammonium molybdate solution. After complete color development (˜1 minute), the absorbance change at 660 nm was recorded and the amount of Pi formed was calculated from a standard curve. Control reactions lacking enzyme were used to correct for background absorbance. […] The data were fitted to the Michaelis-Menten equation which allowed for the determination of Km and Vmax (Equation 3) while IC50 was determined from Equation 4, where y is the relative activity and s is the Hill coefficient. Data were analyzed using GRAFIT™ version 5 software (Erithacus Software Limited, Horley, U.K.).

[6] = 420 g ai/ha, Replicate 1, 10 plants pre-spray
[7] = 840 g ai/ha, Replicate 2, 10 plants pre-spray
[8] = 1680 g ai/ha, Replicate 3, 11 plants pre-spray
[9] = 3360 g ai/ha, Replicate 4, 10 plants pre-spray

Molecule: O=C(O)CNCP(=O)(O)O [glyphosate, N-(phosphonomethyl) glycine]
- effective dose to distinguish sensitive plants from ones with meaningful levels of resistance (T1 Arabidopsis [1]; Arabidopsis): 26.25 g ae/ha
- typical 1× usage rate of glyphosate that will control non-transformed Arabidopsis (T1 Arabidopsis [2]): 420 g ae/ha
- glyphosate concentration sufficient to inhibit cell growth [3]: ≥ 0.25 mM
- No. surviving plants at 14 days after spraying [4, 6]: 0
- No. surviving plants at 21 days after spraying [4, 6]: 0
- No. surviving plants at 14 days after spraying [4, 7]: 3
- No. surviving plants at 21 days after spraying [4, 7]: 0
- No. surviving plants at 14 days after spraying [4, 8]: 0
- No. surviving plants at 21 days after spraying [4, 8]: 0
- No. surviving plants at 14 days after spraying [4, 9]: 1
- No. surviving plants at 21 days after spraying [4, 9]: 0
- glyphosate rate controlling non-transformed plants (T0 corn): ≥ 280 g ae/ha

B1: DGT-28 v1: native EPSP synthase of Streptomyces sviceus (SEQ ID NO:1), N-terminal 6×His tag, E. coli expressed (protein, listed as Streptomyces sviceus)
chain: MRGMPALSLPGSKSITARALFLAAAADGVTTLVRPLRSDDTEGFAEGLVRLGYRVGRTPDTWQVDGRPQGPAVAEADVYCRDGATTARFLPTLAAAGHGTYRFDASPQMRRRPLLPLSRALRDLGVDLRHEEAEGHHPLTVRAAGVEGGEVTLDAGQSSQYLTALLLLGPLTRQGLRIRVTDLVSAPYVEITLAMMRAFGVEVAREGDVFVVPPGGYRATTYAIEPDASTASYFFAAAALTPGAEVTVPGLGTGALQGDLGFVDVLRRMGAEVSVGADATTVRGTGELRGLTANMRDISDTMPTLAAIAPFASAPVRIEDVANTRVKECDRLEACAENLRRLGVRVATGPDWIEIHPGPATGAQVTSYGDHRIVMSFAVTGLRVPGISFDDPGCVRKTFPGFHEAFAELRRGIGS
modifications: N-terminal 6xHis tag
- catalytic efficiency [5]: 132000 M⁻¹ s⁻¹
- Km ([5]; read-out: KM^PEP): 91.6 µM

B2: DGT-31 (v1): Streptomyces EPSP synthase (GENBANK YP_004922608.1) (protein)
chain: MTVIDIPGSKSVTARALFLAAAADGTTTLLRPLHSDDTEGFTEGLTRLGYAVVREPDRWHIEGRPSGPAAADAEVHCRDGATTARFLPTLAAAAASGTYRFDASAQMRRRPLAPLTEALRTLGVDLRHDGAEGHHPLTIQASGVKGGGLTLDAGESSQYLTALLMLGPLTAEGLRIEVTELVSAPYVEITLAMMRGFGVEVVREGNTFTVPPGGYRATTYAIEPDASTASYFFAAAALTGREVTVPGLGTGALQGDLRFTEVLRRMDADVRTTSDSTTVRSDGRLAGLTVNMRDISDTMPTLAAIAPYASSPVRIEDVANTRVKECDRLEACAQNLRSMGITVRTGPDWIEIHPGTPRPTEIATHGDHRIVMSFAVAGLRTPGMSYDDPGCVRKTFPRFHEEFAAFVERSSAGE
modifications: DGT-31 protein
- tolerance to glyphosate (T1 Arabidopsis [1]; T1 Arabidopsis, DGT-31 with TraP23, DGT-32, DGT-33 with TraP8, TraP14, TraP24): slight herbicide tolerance
